Laboratory results: PubChem BioAssay AID248 (DTP/NCI, 2004)
“And” between values parts separate entries of the source, which are not always exact repeats. Equal values may be shown once. Toxic doses and inconclusive results are not listed. Cut-off read from the data, not from the text of the source: active = T/C of 150% or more; inactive = T/C below 125%.

Test system: L1210 leukemia ip in BDF1 mice, survival T/C
Experiment: NCI In Vivo Anticancer Drug Screen. Data for tumor model L1210 Leukemia (intraperitoneal) in B6D2F1 (BDF1) mice
Settings: endpoint: mean survival time, higher = longer survival
How it was run: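 Tumor cells were implanted, animals were treated, and survival was followed. The result divides the treated measurement by the vehicle-control measurement.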

[1] = dose: 100.0 mg/kg/injection, schedule: Q01DX001 (ip), vehicle: saline with Tween-80
[2] = dose: 200.0 mg/kg/injection, schedule: Q01DX001 (ip), vehicle: saline with Tween-80
[3] = dose: 400.0 mg/kg/injection, schedule: Q01DX001 (ip), vehicle: saline with Tween-80
[4] = dose: 100.0 mg/kg/injection, schedule: Q01DX001 (ip), vehicle: carboxymethylcellulose (CMC)
[5] = dose: 200.0 mg/kg/injection, schedule: Q01DX001 (ip), vehicle: carboxymethylcellulose (CMC)
[6] = dose: 400.0 mg/kg/injection, schedule: Q01DX001 (ip), vehicle: carboxymethylcellulose (CMC)
[7] = dose: 100.0 mg/kg/injection, schedule: Q04DX002 (ip), vehicle: saline with Tween-80
[8] = dose: 200.0 mg/kg/injection, schedule: Q04DX002 (ip), vehicle: saline with Tween-80
[9] = dose: 400.0 mg/kg/injection, schedule: Q04DX002 (ip), vehicle: saline with Tween-80
[10] = dose: 50.0 mg/kg/injection, schedule: Q01DX001 (ip), vehicle: saline
[11] = dose: 100.0 mg/kg/injection, schedule: Q01DX001 (ip), vehicle: saline
[12] = dose: 200.0 mg/kg/injection, schedule: Q01DX001 (ip), vehicle: saline
[13] = dose: 100.0 mg/kg/injection, schedule: Q01DX009 (ip), vehicle: saline
[14] = dose: 100.0 mg/kg/injection, schedule: Q04DX003 (ip), vehicle: saline
[15] = dose: 200.0 mg/kg/injection, schedule: Q01DX009 (ip), vehicle: saline
[16] = dose: 200.0 mg/kg/injection, schedule: Q04DX003 (ip), vehicle: saline
[17] = dose: 100.0 mg/kg/injection, schedule: Q04DX003 (ip), vehicle: saline with Tween-80
[18] = dose: 200.0 mg/kg/injection, schedule: Q04DX003 (ip), vehicle: saline with Tween-80
[19] = dose: 400.0 mg/kg/injection, schedule: Q04DX003 (ip), vehicle: saline with Tween-80

Measured: T/C

O=C(O)CC1(CC(=O)O)C(=O)N(c2ccccc2)c2ccccc21
inactive: [1] 95 % of control | [2] 90 % of control | [3] 97 % of control

Cc1ccc(S(=O)(=O)OCC2OCOC2C2OCOC2COS(=O)(=O)c2ccc(C)cc2)cc1 (stereo not drawn)
inactive: dose: 56.25 mg/kg/injection, schedule: Q01DX009 (ip), vehicle: carboxymethylcellulose (CMC) 95 % of control | [4] 95 % of control | dose: 112.5 mg/kg/injection, schedule: Q01DX009 (ip), vehicle: carboxymethylcellulose (CMC) 89 % of control | [5] 96 % of control | dose: 225.0 mg/kg/injection, schedule: Q01DX009 (ip), vehicle: carboxymethylcellulose (CMC) 87 % of control | [6] 90 % of control

N=C(N)N(CC(=O)O)Cc1ccccc1
inactive: [7] 101 % of control | [8] 114 % of control | [9] 104 % of control

COc1ccc(N2C(=O)C3C(C2=O)C2c4ccccc4C3C3CCCCN32)cc1 (stereo not drawn)
inactive: dose: 75.0 mg/kg/injection, schedule: Q01DX001 (ip), vehicle: other 103 % of control

CCC[CH2][Sn]1([CH2]CCC)[O]OC(c2ccccc2)[O]1 (stereo not drawn)
inactive: dose: 0.5 mg/kg/injection, schedule: Q01DX009 (ip), vehicle: saline sonified 102 % of control | dose: 1.0 mg/kg/injection, schedule: Q01DX009 (ip), vehicle: saline sonified 98 % of control | dose: 2.0 mg/kg/injection, schedule: Q01DX009 (ip), vehicle: saline sonified 104 % of control

O=c1ccn(C2CCCO2)c(=O)[nH]1 (stereo not drawn)
inactive: [10] 105 % of control | [11] 109 % of control | [12] 100 % of control | dose: 400.0 mg/kg/injection, schedule: Q01DX001 (ip), vehicle: saline 103 % of control

C=C1C(=O)O[C@H]2C[C@@]3(C)[C@H](O)CCC(=C)[C@@H]3[C@@H](OC(C)=O)[C@H]12
inactive: dose: 25.0 mg/kg/injection, schedule: Q04DX002 (ip), vehicle: saline with Tween-80 86 % of control | dose: 50.0 mg/kg/injection, schedule: Q04DX002 (ip), vehicle: saline with Tween-80 93 % of control | [7] 108 % of control and 90 % of control

CCOC(CNC(=O)CC(C)=O)OCC
inactive: [13] 96 % of control | [14] 104 % of control | [15] 104 % of control | [16] 108 % of control | dose: 400.0 mg/kg/injection, schedule: Q01DX009 (ip), vehicle: saline 98 % of control | dose: 400.0 mg/kg/injection, schedule: Q04DX003 (ip), vehicle: saline 103 % of control

C=CCOc1ccc2c(C)cc(=O)oc2c1C
inactive: dose: 100.0 mg/kg/injection, schedule: Q01DX008 (ip), vehicle: Klucel (hydroxypropylcellulose) (HPC) 93 % of control | dose: 100.0 mg/kg/injection, schedule: Q01DX009 (ip), vehicle: Klucel (hydroxypropylcellulose) (HPC) 94 % of control | dose: 100.0 mg/kg/injection, schedule: Q04DX003 (ip), vehicle: Klucel (hydroxypropylcellulose) (HPC) 96 % of control | dose: 200.0 mg/kg/injection, schedule: Q01DX008 (ip), vehicle: Klucel (hydroxypropylcellulose) (HPC) 88 % of control | dose: 200.0 mg/kg/injection, schedule: Q01DX009 (ip), vehicle: Klucel (hydroxypropylcellulose) (HPC) 96 % of control | dose: 200.0 mg/kg/injection, schedule: Q04DX003 (ip), vehicle: Klucel (hydroxypropylcellulose) (HPC) 96 % of control | dose: 400.0 mg/kg/injection, schedule: Q01DX008 (ip), vehicle: Klucel (hydroxypropylcellulose) (HPC) 86 % of control | dose: 400.0 mg/kg/injection, schedule: Q01DX009 (ip), vehicle: Klucel (hydroxypropylcellulose) (HPC) 97 % of control | dose: 400.0 mg/kg/injection, schedule: Q04DX003 (ip), vehicle: Klucel (hydroxypropylcellulose) (HPC) 96 % of control

CCOC(=O)CC(NC(=O)N(CCCl)CCCl)C(=O)OCC (stereo not drawn)
inactive: dose: 62.5 mg/kg/injection, schedule: Q01DX Z (ip), vehicle: water 101 % of control | dose: 125.0 mg/kg/injection, schedule: Q01DX Z (ip), vehicle: water 108 % of control | dose: 250.0 mg/kg/injection, schedule: Q01DX Z (ip), vehicle: water 111 % of control

OCC(I)CO
inactive: [11] 106 % of control

Cc1c(-c2ccc(Cl)cc2)nc2cc(Cl)ccc2c1C(=O)O
inactive: dose: 100.0 mg/kg/injection, schedule: Q01DX005 (ip), vehicle: saline 107 % of control | [13] 100 % of control | dose: 200.0 mg/kg/injection, schedule: Q01DX005 (ip), vehicle: saline 93 % of control | [15] 103 % of control | dose: 400.0 mg/kg/injection, schedule: Q01DX005 (ip), vehicle: saline 91 % of control

OC[P+](c1ccccc1)(c1ccccc1)c1ccccc1
inactive: [14] 98 % of control | [16] 98 % of control

CC1(C)C(=O)NC2(O)CCCC21 (stereo not drawn)
inactive: dose: 15.0 mg/kg/injection, schedule: Q01DX001 (ip), vehicle: saline 101 % of control

COc1ccc(NC(=S)Nc2ccc(Cc3ccc(NC(=S)Nc4ccc(OC)cc4)cc3)cc2)cc1
inactive: [7] 101 % of control | [8] 95 % of control | [9] 88 % of control

Cc1cccc(NC(=O)Nc2cccc(C(F)(F)F)c2)c1
inactive: [4] 97 % of control | [5] 101 % of control | [6] 97 % of control

c1ccc(-c2nnc(N3CCCCC3)nc2-c2ccccc2)cc1
inactive: [10] 100 % of control | [11] 88 % of control | [12] 94 % of control

COc1ccc(NC(=S)/C(=C(/[O-])c2ccc(C)cc2)[n+]2ccccc2)cc1
inactive: [1] 92 % of control | [7] 95 % of control and 96 % of control | [17] 105 % of control and 108 % of control and 90 % of control | [2] 102 % of control | [8] 97 % of control and 110 % of control | [18] 93 % of control and 98 % of control and 105 % of control | [3] 94 % of control | [9] 98 % of control and 104 % of control | [19] 93 % of control and 95 % of control and 91 % of control

COC(=O)C(c1ccccc1)C(O)c1ccccc1 (stereo not drawn)
inactive: dose: 55.0 mg/kg/injection, schedule: Q01DX Z (ip), vehicle: methylcellulose (MC) 113 % of control | dose: 83.0 mg/kg/injection, schedule: Q01DX Z (ip), vehicle: methylcellulose (MC) 94 % of control | dose: 125.0 mg/kg/injection, schedule: Q01DX Z (ip), vehicle: methylcellulose (MC) 93 % of control

O=C(Nc1ccccc1F)Nc1cccc2ccc(O)cc12
inactive: dose: 100.0 mg/kg/injection, schedule: Q01DX009 (ip), vehicle: alcohol 95 % of control | dose: 200.0 mg/kg/injection, schedule: Q01DX009 (ip), vehicle: alcohol 98 % of control | dose: 400.0 mg/kg/injection, schedule: Q01DX009 (ip), vehicle: alcohol 93 % of control

Nc1nc(N)c(-c2ccc(Cl)cc2)c(CCc2ccc(NC(=O)CBr)cc2)n1
inactive: [10] 116 % of control | [11] 110 % of control

CC1=NCC(C)(C)O1
inactive: [17] 98 % of control | [18] 95 % of control | [19] 98 % of control

C=C1CC(C)(c2ccc(S(=O)(=O)N3CCCC3)cc2)OC1=O (stereo not drawn)
inactive: dose: 18.0 mg/kg/injection, schedule: Q01DX009 (ip), vehicle: Klucel (hydroxypropylcellulose) (HPC) 108 % of control | dose: 37.5 mg/kg/injection, schedule: Q01DX009 (ip), vehicle: Klucel (hydroxypropylcellulose) (HPC) 95 % of control | dose: 75.0 mg/kg/injection, schedule: Q01DX009 (ip), vehicle: Klucel (hydroxypropylcellulose) (HPC) 104 % of control | dose: 87.5 mg/kg/injection, schedule: Q01DX009 (ip), vehicle: Klucel (hydroxypropylcellulose) (HPC) 104 % of control
